Consider nine molecules from patent US10227312B2, “Glucosylceramide synthase inhibitors for the treatment of diseases” (BIOMARIN PHARMACEUTICAL INC., priority 2015, dated 2019).

Test [1] addresses glucosylceramide synthase (GCS) (Canis lupus familiaris, UniProt A0A8I3MXG6). Put plainly: GCS Enzymatic Assay (MDCK lysates). The format is biochemical, canine. Conditions: MDCK cell lysate, C6-NBD-Ceramide, 37° C. for 1 hour, LC/MS; read-out: Assay 1 (Enzyme Assay; MDCK lysates) IC50. The method, then: Madin-Darby canine kidney (MDCK) cell lysate was prepared using M-PER Mammalian Protein Extraction Reagent (Thermal Scientific) in the presence of a protease inhibitor cocktail (Roche). Protein concentration was determined using BCA assay kit (Pierce). […] 0.1% DMSO was used as mock treatment or control. The reaction was terminated by adding 100 μL acetonitrile solution and subjected to LC/MS analysis.
The quantitative analysis of NBD-Ceramide and glucosylceramide was performed on a Shimadzu ultra-fast liquid chromatography (Shimadzu, Japan) coupled with API 4000 triple quadrupole mass spectrometer (Applied Biosystems, Concord, Ontario, Canada). Sample separation was conducted on a Waters Xbridge™ BEH130 C18, 100 mm×4.6 mm i.d, 3.5 μm (Milford, Mass., USA). The mobile phase consisted of water and acetonitrile supplemented with 0.1% formic acid (v/v). The flow rate was 1.0 mL/min. The initial mobile phase was 20% acetonitrile and was ramped in a linear fashion to 50% acetonitrile in 0.4 min. From 0.4 to 1.5 min, the gradient was ramped to 98% acetonitrile, and then was held at […] until 8.0 min. Acetonitrile was reset to 20% in 1.5 min, and maintained until 10.0 min. The total run time was 10.0 min. The MS/MS detection was performed in ESI positive mode. […] The cell lysate was diluted with equal volume of acetonitrile. Aliquots of 50 μL diluted samples were added to 1.5 mL tubes, and 100 μL of acetonitrile containing internal standard (100 ng/mL tolbutamide) were added for protein precipitation. The mixture were vortexed and then centrifuged at 13000 rpm for 10 min. 70 μL of supernatant were mixed with 140 μL of H2O and the final solution were injected for LC/MS/MS analysis and IC50's and/or percent inhibitions calculated.

Test [2] concerns K562 cells. Put plainly: K562 Cell-Based Assay. The conditions noted are these: Homo sapiens, NBD-Ceramide, LCMS, read-out: Assay 2 (Cellular Assay; K562 cells) IC50. Here is the method: This assay was modified based on the study by Gupta et al. (J. Lipid Res. 2010, 51, 866). K562 cells were seeded into 12-well plates at 3×10^5 cells/well/mL in RPMI-1640 medium with 5% FBS and incubated at 37° C. for 24 h. One μL of a compound described herein at desired concentration (10 mM, 1 mM, 0.1 mM, 0.01 mM, 0.001 mM and 0.0001 mM in DMSO) or DMSO was added into the corresponding well and mixed. Cells were incubated at 37° C. for 4 h. Then 100 μL of RPMI-1640 medium containing 110 μM of NBD-Ceramide, 11% BSA, 5% FBS, and corresponding concentration of a compound described herein was added into each well and mixed. Cells were incubated for additional 0.5 h at 37° C., followed by washing the cells with ice-cold PBS (pH 7.4) twice with centrifugation and resuspended with 50 μL cold PBS+1% Triton X-100. The cell lysate was sonicated for 15 min before adding equal volume of methanol for LCMS analysis. A small aliquot of cell lysate was used to determine protein concentration by BCA assay kit. The HPLC equipment and methods used in Assay 1 were used in this assay as well and IC50's were calculated.

Where only a bound is given, the exact number is not on record here.

glucosylceramide synthase (GCS), sequence (A0A8I3MXG6 1-394): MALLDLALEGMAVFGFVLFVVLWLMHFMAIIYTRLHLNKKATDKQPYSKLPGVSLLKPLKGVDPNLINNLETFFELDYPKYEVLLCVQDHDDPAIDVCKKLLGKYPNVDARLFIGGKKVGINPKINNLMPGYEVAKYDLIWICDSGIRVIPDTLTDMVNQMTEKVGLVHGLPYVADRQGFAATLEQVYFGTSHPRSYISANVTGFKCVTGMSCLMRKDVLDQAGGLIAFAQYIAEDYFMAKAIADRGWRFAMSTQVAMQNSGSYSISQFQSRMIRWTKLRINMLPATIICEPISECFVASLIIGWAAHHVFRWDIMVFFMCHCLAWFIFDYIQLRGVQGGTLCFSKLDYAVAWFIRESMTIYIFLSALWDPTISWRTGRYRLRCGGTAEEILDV

In the case of `Cn1ncc2ccc3c(c21)CON=C3C(=O)N[C@H](CN1CCCC1)[C@H](O)c1ccc(OC2CC2)c(Cl)c1` [Example 34, N-((1R,2R)-1-(3-chloro-4-cyclopropoxyphenyl)-1-hydroxy-3-(pyrrolidin-1-yl)propan-2-yl)-1-methyl-1,9-dihydro-[1,2]oxazino[4,5-g]indazole-6-carboxamide], the IC50 in test [1] was below 10 nM; in test [2], 10 to 100 nM.

For the molecule `O=C(N[C@H](CN1CCCC1)[C@H](O)c1ccc(OC2CC2)c(Cl)c1)C1=NOCc2c1ccc1ncccc21` [Example 36, N-((1R,2R)-1-(3-chloro-4-cyclopropoxyphenyl)-1-hydroxy-3-(pyrrolidin-1-yl)propan-2-yl)-1H-[1,2]oxazino[5,4-f]quinoline-4-carboxamide], the IC50 in test [1] was below 10 nM; in test [2], 10 to 100 nM.

Turning to `O=C(N[C@H](CN1CCCC1)[C@H](O)c1ccc(OC2CC2)c(Cl)c1)C1=NOCc2c1ccc1cc(Cl)sc21` [Example 37, 2-chloro-N-((1R,2R)-1-(3-chloro-4-cyclopropoxyphenyl)-1-hydroxy-3-(pyrrolidin-1-yl)propan-2-yl)-9H-thieno[2′,3′:3,4]benzo[1,2-d][1,2]oxazine-6-carboxamide], the IC50 was below 10 nM in test [1] and at most 10 nM in test [2].

Regarding `O=C(N[C@H](CN1CCCC1)[C@H](O)c1ccc(OC2CC2)c(F)c1)C1=NCCc2cc(-c3ccc(F)cc3)ccc21` [Example 38, N-((1R,2R)-1-(4-cyclopropoxy-3-fluorophenyl)-1-hydroxy-3-(pyrrolidin-1-yl)propan-2-yl)-6-(4-fluorophenyl)-3,4-dihydroisoquinoline-1-carboxamide], the IC50 in test [1] was 10 to 100 nM; in test [2] it was at most 10 nM.

For `CN(C(=O)C1=NCCc2cc(-c3ccc(F)cc3)ccc21)[C@H](CN1CCCC1)[C@H](O)c1ccc(OC2CC2)c(Cl)c1` [Example 39, N-((1R,2R)-1-(3-chloro-4-cyclopropoxyphenyl)-1-hydroxy-3-(pyrrolidin-1-yl)propan-2-yl)-6-(4-fluorophenyl)-N-methyl-3,4-dihydroisoquinoline-1-carboxamide], the figures for the IC50 in test [1] and in test [2] were 10 to 100 nM and at most 10 nM, respectively.

In the case of `O=C(N[C@H](CN1CCCC1)[C@H](O)c1ccc(OC2CC2)cc1)C1=NOCc2c1ccc1sc(Cl)cc21` [Example 44, 8-chloro-N-((1R,2R)-1-(4-cyclopropoxyphenyl)-1-hydroxy-3-(pyrrolidin-1-yl)propan-2-yl)-1H-thieno[3′,2′:3,4]benzo[1,2-d][1,2]oxazine-4-carboxamide], the IC50 is 10 to 100 nM in test [1] and at most 10 nM in test [2].

For the molecule `O=C(N[C@H](CN1CCCC1)[C@H](O)c1ccc(OC2CC2)c(Cl)c1)C1=NOCc2cc(OCC3CCCCC3)ccc21` [Example 45, N-((1R,2R)-1-(3-chloro-4-cyclopropoxyphenyl)-1-hydroxy-3-(pyrrolidin-1-yl)propan-2-yl)-7-(cyclohexylmethoxy)-1H-benzo[d][1,2]oxazine-4-carboxamide], the IC50 in test [1] was below 10 nM; in test [2], 10 to 100 nM.

With `Cn1ncc2ccc3c(c21)CON=C3C(=O)N[C@H](CN1CCCC1)[C@H](O)c1ccc(OC2CC2)c(F)c1` [Example 46, N-((1R,2R)-1-(4-cyclopropoxy-3-fluorophenyl)-1-hydroxy-3-(pyrrolidin-1-yl)propan-2-yl)-1-methyl-1,9-dihydro[1,2]oxazino[4,5-g]indazole-6-carboxamide], the IC50 in test [1] was below 10 nM; in test [2] it was at most 10 nM.

With `O=C(N[C@H](CN1CCCC1)[C@H](O)c1ccc(OC2CC2)c(F)c1)C1=NOCc2c1ccc1cc(Cl)sc21` [Example 47, 2-chloro-N-((1R,2R)-1-(4-cyclopropoxy-3-fluorophenyl)-1-hydroxy-3-(pyrrolidin-1-yl)propan-2-yl)-9H-thieno[2′,3′:3,4]benzo[1,2-d][1,2]oxazine-6-carboxamide], the values for the IC50 in test [1] and in test [2] were below 10 nM and at most 10 nM, respectively.
